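Briefly, cells in 96-well plates were exposed to five compound concentrations for 48 h, and endpoints were estimated by linear interpolation. GI50: concentration for 50% inhibition of growth.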 Active and inactive are the calls of the source. No stated cut-off is given here; in the data, active = GI50 up to about 1.1 µM and inactive = higher.
Experiments:
Experiment in all cases: NCI tumour cell line growth inhibition, 48 h
SF-268 = system: SF-268
786-0 = system: 786-0
EKVX = system: EKVX
HCT-116 = system: HCT-116
CAKI-1 = system: CAKI-1
SK-MEL-5 = system: SK-MEL-5
A549 = system: A549
OVCAR-4 = system: OVCAR-4
COLO 205 = system: COLO 205
UACC-62 = system: UACC-62
UO-31 = system: UO-31
SK-MEL-28 = system: SK-MEL-28
SK-MEL-2 = system: SK-MEL-2
OVCAR-8 = system: OVCAR-8
HCT-15 = system: HCT-15
HOP-62 = system: HOP-62
Malme-3M = system: Malme-3M
NCI-H226 = system: NCI-H226
DU-145 = system: DU-145
MDA-N = system: MDA-N

Measured: GI50

S=c1sc2c(Cl)ncnc2n1-c1ccccc1
15.1 µM: HCT-15
inactive: SF-268 5.05 µM | 786-0 15.1 µM | EKVX 17.7 µM | HCT-116 5.66 µM | CAKI-1 4.88 µM | SK-MEL-5 16.1 µM | A549 28.8 µM | OVCAR-4 18.8 µM | COLO 205 14 µM | UACC-62 9.62 µM | UO-31 18.7 µM | SK-MEL-28 11.2 µM | SK-MEL-2 8.81 µM | OVCAR-8 16.1 µM | HOP-62 15.6 µM | Malme-3M 10.9 µM | NCI-H226 13.4 µM

O=C(Cc1csc(N/N=C2\C(=O)Nc3ccccc32)n1)Nc1ccccc1
38.5 µM: HCT-15
inactive: SF-268 17.7 µM | 786-0 17.7 µM | DU-145 24.9 µM | EKVX 19.9 µM | HCT-116 21.4 µM | CAKI-1 23.3 µM | SK-MEL-5 15.3 µM | A549 39.9 µM | OVCAR-4 41.5 µM | COLO 205 55.1 µM | UO-31 25.3 µM | SK-MEL-28 21 µM | SK-MEL-2 91.8 µM | OVCAR-8 21.1 µM | HOP-62 18.1 µM | NCI-H226 10 µM

CC(=O)O[C@H]1CCC2[C@@H]3CCC4=C(O)c5nocc5C[C@]4(C)C3CC[C@@]21C (stereo not given in full)
> 100 µM: HCT-15
inactive: SF-268 > 100 µM | 786-0 > 100 µM | EKVX > 100 µM | HCT-116 > 100 µM | CAKI-1 > 100 µM | SK-MEL-5 > 100 µM | A549 > 100 µM | OVCAR-4 > 100 µM | COLO 205 > 100 µM | UACC-62 > 100 µM | UO-31 > 100 µM | SK-MEL-28 > 100 µM | SK-MEL-2 > 100 µM | OVCAR-8 > 100 µM | HOP-62 > 100 µM | Malme-3M > 100 µM | NCI-H226 > 100 µM

NC(=O)/C(=N\NC(=O)C[n+]1ccccc1)C1NC(=O)NC1=O (stereo not given)
> 100 µM: HCT-15
inactive: SF-268 > 100 µM | 786-0 > 100 µM | EKVX > 100 µM | HCT-116 > 100 µM | CAKI-1 > 100 µM | SK-MEL-5 > 100 µM | A549 > 100 µM | OVCAR-4 > 100 µM | COLO 205 32.7 µM | UACC-62 > 100 µM | UO-31 > 100 µM | SK-MEL-28 > 100 µM | SK-MEL-2 > 100 µM | OVCAR-8 > 100 µM | HOP-62 > 100 µM | Malme-3M > 100 µM | NCI-H226 > 100 µM

CCCCN(CC)CC(C(C)=O)c1c(O)c2ccccc2oc1=O (stereo not given)
inactive: SF-268 > 100 µM | 786-0 > 100 µM | EKVX > 100 µM | HCT-116 > 100 µM | CAKI-1 > 100 µM | SK-MEL-5 > 100 µM | A549 > 100 µM | OVCAR-4 > 100 µM | COLO 205 > 100 µM | UACC-62 > 100 µM | UO-31 > 100 µM | SK-MEL-28 > 100 µM | SK-MEL-2 > 100 µM | OVCAR-8 > 100 µM | HOP-62 > 100 µM | Malme-3M > 100 µM | NCI-H226 > 100 µM
> 100 µM: HCT-15

CC(=O)c1c2c(cc3c1CC1(Cc4cc5c(cc4C1)CCCC5)C3)CCCC2
36.1 µM: HCT-15
active: UO-31 0.438 µM
inactive: 786-0 > 100 µM | EKVX > 100 µM | HCT-116 > 100 µM | MDA-N 16.4 µM | SK-MEL-5 10.3 µM | A549 > 100 µM | OVCAR-4 8.39 µM | COLO 205 77.1 µM | UACC-62 > 100 µM | SK-MEL-2 18.8 µM | OVCAR-8 > 100 µM | HOP-62 > 100 µM | Malme-3M 94.8 µM | NCI-H226 43.5 µM

Cc1ccc(NCC(=O)N2CC(=O)Nc3ccccc32)c(C)c1
> 100 µM: HCT-15
inactive: SF-268 > 100 µM | 786-0 > 100 µM | EKVX > 100 µM | HCT-116 > 100 µM | CAKI-1 > 100 µM | SK-MEL-5 > 100 µM | A549 > 100 µM | OVCAR-4 > 100 µM | COLO 205 > 100 µM | UACC-62 95.1 µM | UO-31 > 100 µM | SK-MEL-28 > 100 µM | SK-MEL-2 > 100 µM | OVCAR-8 > 100 µM | HOP-62 > 100 µM | Malme-3M > 100 µM | NCI-H226 > 100 µM

COC1(OC)N=C(N)C2(C#N)C(C)CC(=O)N(N(C)C)C12C#N (stereo not given)
inactive: SF-268 > 100 µM | 786-0 > 100 µM | DU-145 > 100 µM | EKVX > 100 µM | HCT-116 > 100 µM | CAKI-1 > 100 µM | SK-MEL-5 > 100 µM | A549 > 100 µM | COLO 205 > 100 µM | UACC-62 > 100 µM | UO-31 > 100 µM | SK-MEL-28 > 100 µM | SK-MEL-2 > 100 µM | OVCAR-8 > 100 µM | HOP-62 > 100 µM | Malme-3M > 100 µM | NCI-H226 > 100 µM
> 100 µM: HCT-15

Cc1ccccc1/N=N/c1c(-c2ccccc2)nn(C(=O)CC(=O)Nc2cccc(Cl)c2)c1-c1ccccc1
inactive: SF-268 24 µM | 786-0 18.5 µM | EKVX 28.4 µM | HCT-116 13.4 µM | CAKI-1 31.6 µM | SK-MEL-5 15.8 µM | A549 > 10 µM | OVCAR-4 22.6 µM | COLO 205 14.9 µM | UACC-62 22 µM | UO-31 14.5 µM | SK-MEL-28 > 31.5 µM | SK-MEL-2 12.7 µM | OVCAR-8 21.3 µM | HOP-62 > 31.6 µM | Malme-3M 37.9 µM | NCI-H226 16 µM
16.9 µM: HCT-15

CN(C)c1ccc(/C=c2/c3ccccc3n3nc4ccccc4c23)cc1
8.32 µM: HCT-15
inactive: SF-268 36.3 µM | 786-0 27 µM | DU-145 75.5 µM | EKVX 44.3 µM | HCT-116 16.8 µM | CAKI-1 28.7 µM | MDA-N 3.13 µM | SK-MEL-5 8.73 µM | A549 16.3 µM | COLO 205 9.64 µM | UACC-62 15.3 µM | UO-31 39.6 µM | SK-MEL-28 34.9 µM | SK-MEL-2 23.4 µM | OVCAR-8 39.8 µM | HOP-62 49.4 µM | Malme-3M > 100 µM

COc1cc2c(cc1OC)[C@H]1C(COC(=O)c3ccccc3)CS/C(=N/c3ccccc3)N1CC2 (stereo not given in full)
> 100 µM: HCT-15
inactive: SF-268 8.69 µM | 786-0 > 100 µM | EKVX > 100 µM | HCT-116 5.68 µM | CAKI-1 > 100 µM | SK-MEL-5 > 100 µM | A549 82.6 µM | OVCAR-4 5.15 µM | COLO 205 > 100 µM | UACC-62 > 100 µM | UO-31 24.5 µM | SK-MEL-28 > 100 µM | SK-MEL-2 3.21 µM | OVCAR-8 > 100 µM | HOP-62 > 100 µM | Malme-3M > 100 µM | NCI-H226 36.3 µM

Cn1ccnc1Oc1ccc(Cl)cc1
inactive: SF-268 28.5 µM | 786-0 11.5 µM | DU-145 15.9 µM | EKVX 19.8 µM | HCT-116 12 µM | SK-MEL-5 14.1 µM | A549 34.2 µM | OVCAR-4 6.12 µM | COLO 205 13 µM | UACC-62 11.1 µM | UO-31 11.7 µM | SK-MEL-28 14.4 µM | SK-MEL-2 16.4 µM | OVCAR-8 7.69 µM | HOP-62 26.2 µM | Malme-3M 2.28 µM | NCI-H226 13 µM
11.7 µM: HCT-15

COc1ccccc1/C=N/C12CC3CC(CC(C3)C1)C2
inactive: SF-268 > 100 µM | 786-0 > 100 µM | EKVX > 100 µM | HCT-116 > 10 µM | CAKI-1 > 100 µM | SK-MEL-5 81.8 µM | A549 > 100 µM | OVCAR-4 > 100 µM | COLO 205 > 100 µM | UACC-62 > 100 µM | UO-31 > 100 µM | SK-MEL-28 > 100 µM | SK-MEL-2 > 100 µM | OVCAR-8 > 100 µM | HOP-62 > 100 µM | Malme-3M > 100 µM | NCI-H226 > 10 µM
91.8 µM: HCT-15

COc1ccc([S+]([O-])Cc2cc(OC)c(OC)c(OC)c2)cc1 (stereo not given)
30.4 µM: HCT-15
inactive: SF-268 97.5 µM | 786-0 > 100 µM | DU-145 > 100 µM | EKVX > 100 µM | HCT-116 40.4 µM | CAKI-1 56.9 µM | SK-MEL-5 29.6 µM | A549 49.1 µM | OVCAR-4 > 100 µM | COLO 205 52.8 µM | UACC-62 42.4 µM | UO-31 > 100 µM | SK-MEL-28 95.3 µM | SK-MEL-2 38.1 µM | OVCAR-8 62.5 µM | HOP-62 45.5 µM | Malme-3M 58.3 µM | NCI-H226 > 100 µM

C1=Cc2nc1c(-c1ccncc1)c1ccc([n-]1)c(-c1ccncc1)c1nc(c(-c3ccncc3)c3ccc([n-]3)c2-c2ccncc2)C=C1.[Zn+2]
> 100 µM: HCT-15
inactive: SF-268 > 100 µM | 786-0 > 100 µM | EKVX > 100 µM | HCT-116 > 100 µM | CAKI-1 > 100 µM | SK-MEL-5 > 100 µM | A549 > 100 µM | OVCAR-4 > 100 µM | COLO 205 > 100 µM | UACC-62 > 100 µM | UO-31 > 100 µM | SK-MEL-28 > 100 µM | SK-MEL-2 > 100 µM | OVCAR-8 > 100 µM | HOP-62 > 100 µM | Malme-3M > 100 µM | NCI-H226 > 100 µM

CN(C)Cc1cc(/C=C/C(=O)c2ccc(Br)cc2)cc(CN(C)C)c1O
inactive: SF-268 14.8 µM | 786-0 16 µM | DU-145 15.7 µM | EKVX 20.2 µM | HCT-116 14.8 µM | CAKI-1 8.47 µM | MDA-N 17.1 µM | SK-MEL-5 19.6 µM | A549 29.2 µM | COLO 205 14.6 µM | UACC-62 20.4 µM | UO-31 10.7 µM | SK-MEL-28 17.1 µM | SK-MEL-2 26.2 µM | OVCAR-8 29.2 µM | HOP-62 30.1 µM | Malme-3M 16.7 µM
